# Experimental data from patent US9987279B2, “Pharmaceutical composition for prevention and/or treatment of urinary incontinence” (ASTELLAS PHARMA INC., priority 2014, dated 2018).
# How the values were obtained:
# [1] = test system: stress urinary incontinence; conditions: clinical study; cited from earlier work
# [2] = test system: external urethral sphincter of extracted rat urethra; assay: External urethral sphincter contractile response induced by transmural electrical stimulation using extracted rat urethra; conditions: extracted rat urethra strips, 10 or 30 μmol/L, 15 minutes after addition, transmural electrical stimulation 20 V, 20 Hz; FIG. 1
# [3] = test system: rat extensor digitorum longus muscle; conditions: rat extensor digitorum longus muscle including a fast-muscle component; cited from earlier work
# [4] = test system: rat extensor digitorum longus muscle; conditions: in vivo, electrical stimulation of the rat fibular nerve; cited from earlier work
# rat diaphragm myofibrils = conditions: cited from earlier work
# rat diaphragm = conditions: in vitro, transmural electrical stimulation; cited from earlier work
# SD female rats = assay: Reaction increasing urethra internal pressure induced by electrical stimulation of rat pudendal nerve; assay type: in vivo; conditions: anesthetized SD female rats, 3 or 10 mg/kg intravenously, about three minutes after administration; FIG. 2
# Method: Test to Evaluate Reinforcing Action of Compound A on Reaction Increasing Urethra Internal Pressure Induced by Electrical Stimulation of Rat Pudendal Nerve
# SD female rats (Japan SLC, Inc.) having a body weight of 200-350 g were anesthetized with urethane (1.2 g/kg, sc; Sigma-Aldrich), and a catheter (PE-50; Becton Dickinson) was lodged in the jugular vein for administering the test substance. Laparotomies were performed, and the dome of the bladder was cut open to allow discharge of the urine in the bladder. A microchip pressure transducer catheter (3.5Fr; Millar Instruments) was inserted from the external urethral orifice toward the bladder to measure the urethra internal pressure. The rats were arranged prone, the back was cut open, and several left and right pudendal nerves were isolated and held in place with exciting electrodes. […] The average of the reactions increasing urethra internal pressure by electrical stimulation three times before administering the test substance was calculated as the level before administering the test substance, and the percentage of reaction increasing urethra internal pressure by electrical stimulation about three minutes after administering the test substance to the value before administering the test substance was calculated for each of the treatment groups.
# [5] = preclinical study; cited from earlier work
compound,measurement,setting,value
"CCOc1ccccc1O[C@@H](c1ccccc1)[C@@H]1CNCCO1 [(S,S)-reboxetine]",efficacy on stress urinary incontinence,[1],effective for stress urinary incontinence
same,urethral resistance,[1],increased urethral resistance
"NC(=O)c1ccn(-c2cnc(NC[C@]3(c4ncccc4F)C[C@H](F)C3)nc2)c1 [Compound A, 1-[2-({[trans-3-fluoro-1-(3-fluoropyridin-2-yl)cyclobutyl]methyl}amino)pyrimidin-5-yl]-1H-pyrrole-3-carboxamide]",contractile response of the external urethral sphincter after adding test substance relative to before adding,[2],reinforced contractile response of the external urethral sphincter
same,shift of concentration-response curve of intracellular calcium ions concentration and muscle tension,[3],shift the concentration-response curve of intracellular calcium ions concentration and muscle tension to the left
same,extensor digitorum longus muscle contractile response,[4],reinforcing extensor digitorum longus muscle contractile response
same,shift of concentration-response curve of intracellular calcium ions concentration and muscle tension,rat diaphragm myofibrils,shift the concentration-response curve of intracellular calcium ions concentration and muscle tension to the left
same,contractile response of rat diaphragm,rat diaphragm,reinforcing the contractile response of a rat diaphragm
same,reaction increasing urethra internal pressure after administration relative to before administration,SD female rats,reinforced a reaction increasing urethra internal pressure
CNCC[C@H](Oc1cccc2ccccc12)c1cccs1 [duloxetine],adverse drug reactions,[1],undesirable adverse drug reactions such as suicide attempts were reported
same,efficacy on stress urinary incontinence,[1],effective on stress urinary incontinence
CNCCC(Oc1ccccc1OC)c1ccccc1 (stereo not drawn) [nisoxetine],incontinence induced by sneezing,[5],improved incontinence induced by sneezing
same,urethra internal pressure,[5],increased urethra internal pressure
